{"source": "patent US10744072B2", "about": "“Cosmetic composition for oral administration for reinforcing the skin barrier” (NUTRICOS Technologies, priority 2015, dated 2020)", "type_in_all_cases": "cell-based", "key": {"[1]": {"tested_on": "SPRR2D", "assay": "Gene expression (RNAm) of SPRR2D in human keratinocytes NHEK per RT-qPCR", "details": "each compound at 10 μg/ml, 18 hours incubation, standardized to RPS28 and GAPDH", "method": "(§1) The effect of the lycopene and manganese was studied separately then in combination on the gene expression profile (RNAm) of human keratinocytes NHEK (normal human epidermal keratinocytes) per RT-qPCR.\n(§2) A 24-well plate was seeded with keratinocytes then placed into culture for 24 hours. The culture medium was then replaced with the test medium comprising according to the cases 0 (negative control), one or two tested compounds. The cells were incubated in this test medium for 18 hours then washed and frozen at −80° C. Each condition was carried out in triplicate. Two samples of each triplicate were grouped together, then the RNAm was extracted therefrom using TriPure Isolation Reagent® according to the supplier's recommendations. The ADNc was synthesized via reverse transcription of total RNA by “Transcriptor Reverse Transcriptase” from Roche. Then a quantitative PCR was performed in the presence of a fluorophore. The incorporation of fluorophore in the amplified DNA was measured during the PCR cycles. Two genes were used as a reference (RPS28 ad GADPH), in order to standardize the results. As such the level of expression of the studied genes was compared to the average level of expression of these two reference genes for all of the conditions tested.\n(§3) For this test, the source of lycopene is Lyc-o-Mato marketed by Lycored and the source manganese is manganese sulfate."}, "[2]": {"tested_on": "RPS28", "assay": "Gene expression of reference gene RPS28 in human keratinocytes NHEK per RT-qPCR", "details": "each compound at 10 μg/ml, 18 hours incubation", "method": "as §1, §2, §3"}, "[3]": {"tested_on": "GAPDH", "assay": "Gene expression of reference gene GAPDH in human keratinocytes NHEK per RT-qPCR", "details": "each compound at 10 μg/ml, 18 hours incubation", "method": "as §1, §2, §3"}}, "data": [{"substance": "manganese sulfate", "values": [{"measurement": "SPRR2D expression expressed as a percentage in relation to the conditions without added compound", "setting": "[1]", "result": 106, "unit": "%"}, {"measurement": "Control (RPS28) expression expressed as a percentage in relation to the conditions without added compound", "setting": "[2]", "result": 117, "unit": "%"}, {"measurement": "Control (GAPDH) expression expressed as a percentage in relation to the conditions without added compound", "setting": "[3]", "result": 96, "unit": "%"}]}]}
